# In patent US20250177357A1, “METHODS FOR TREATING HYPERTROPHIC CARDIOMYOPATHY” (priority 2021, published 2025):
# Legend:
# Format in all cases: in vivo, human
# [1] = test system: patients with symptomatic obstructive HCM (oHCM); test: Phase 2 trial in oHCM: safety
# Source text: (§1) Patients up-titrated to Dose 2 if either of the following conditions were met on echocardiography: (1) resting LVOT-G≥30 mmHg and the biplane LVEF≥50%; or (2) resting LVOT-G<30 mmHg, post-Valsalva LVOT-G≥50 mmHg, and the biplane LVEF≥50%. Otherwise, the patient remains on Dose 1. If LVEF is <50% at Week 2, the patient was down-titrated to placebo.
# (§2) Patients were escalated to the next higher dose if either of the following conditions were met on echocardiography: (1) resting LVOT-G≥30 mmHg and the biplane LVEF≥50%; or (2) resting LVOT-G<30 mmHg, post-Valsalva LVOT-G≥50 mmHg, and the biplane LVEF≥50%. Otherwise, the patient remained on the same dose. If LVEF was <50% at Week 4, the patient was returned to a prior dose level or to placebo if the patient was on Dose 1.
# [2] = Phase 1 plasma pharmacokinetics, food-effect cohort; settings: single 10 mg
# Procedure: Food-effect cohort. […] Participants were randomized in a 1:1 ratio to 1 of 2 sequences: fasted/fed or fed/fasted.
# Pharmacokinetic analyses. For all study groups, blood samples for PK assessment were obtained pre-dose, up to 12 times daily on day 1, and then at regular intervals throughout the study. Blood samples were collected according to the following schedule: SAD Cohorts: Day 1: pre-dose and 0.25, 0.5, 1, 1.5, 2, 2.5, 3, 4, 6, 8, 12, 16, 24, 36, 48, 72, 96, and 216 h post dose. […] CYPD6-PM Cohort: Day 1: pre-dose and 0.25, 0.5, 1, 1.5, 2, 2.5, 3, 4, 6, 8, 12, 16, 24, 36, 48, 72, 96, 216, 312, and 552 h post dose. Food-Effect Cohort: Day 1: pre-dose and 0.25, 0.5, 1, 1.5, 2, 2.5, 3, 4, 6, 8, 12, 16, 24, 36, 48, 72, 96, 144, and 216 h post dose. Standard non-compartmental methods were used to calculate PK parameters using Phoenix® WinNonlin® Version 7.0; actual sample collection times were utilized.
# [3] = test system: patients with symptomatic obstructive HCM (oHCM); test: Phase 2 trial in oHCM, Cohorts 1 and 2: echocardiography, NYHA class, biomarkers; settings: for Average ejection fraction: at 10 weeks
# Source text: Cohort 3 included patients receiving disopyramide.
# Since patient characteristics vary substantially in this disease, individualized dose titration to a pharmacodynamics (PD) response (reduction of the LVOT-G to <30 mmHg with preservation of LVEF>50%) was employed to maximize efficacy and safety.
# Body weight was ≥45 kg at screening; 4. […] Adequate acoustic windows for echocardiography; 6. Had LVOT-G during screening as follows for Cohorts 1 and 2: (a) resting gradient≥50 mmHg; or (b) resting gradient≥30 mmHg and <50 mmHg with post-Valsalva LVOT-G≥50 mmHg; or as follows for Cohort 3: persistent resting LVOT obstruction (≥30 mmHg) and provoked LVOT obstruction (≥50 mmHg); 7. Left ventricular ejection fraction (LVEF)≥60% at screening; 8. […] Able to complete all screening procedures; and 13. Taking stable doses of disopyramide for >4 weeks prior to screening (Cohort 3 only).
# Aortic stenosis or fixed subaortic obstruction; 2. […] Has been treated with septal reduction therapy (surgical myectomy or percutaneous alcohol septal ablation) or has plans for either treatment during the study period; 6. […] Hemoglobin<10.0 g/dL at screening; 18. […] Has received prior treatment with CK-3773274 or is currently receiving mavacamten; 21.
# as §1, §2
# Echocardiograms obtained every 2 weeks and 2 weeks after the last dose were analyzed for several key structural and physiologic metrics and N-terminal prohormone of brain natriuretic peptide (NT-proBNP).
# Initial results from the clinical study included data from two sequentially conducted cohorts, Cohort 1 (n=21) and Cohort 2 (n=20) which randomized treatment of patients 2:1 to CK-274 or placebo. […] Overall, treatment duration for each patient in the study was 10 weeks with an echocardiogram conducted 2 weeks after the last dose.
# [4] = test system: patients with symptomatic oHCM; test: Open-label extension trial in oHCM: LVOT-G, LVEF, NYHA class, KCCQ
# Source text: An open-label extension clinical trial of CK-274 in patients with symptomatic oHCM was initiated.
# Patients who completed the study as described in Example 2 and had not developed atrial fibrillation were eligible to enroll in the study. Echo-guided dose titration based on site reads was managed by the investigator and could occur at any time during the trial, as described below.
# Each patient received Dose 1 of CK-274 once daily for 2 weeks. […] Patients were up-titrated to Dose 2 if either of the following conditions were met on echocardiography: (1) resting LVOT-G≥30 mmHg and the biplane LVEF≥50%; or (2) resting LVOT-G<30 mmHg, post-Valsalva LVOT-G≥50 mmHg, and the biplane LVEF≥50%. Otherwise, the patient remained on 5 mg of CK-274. If LVEF was […], treatment was discontinued. If LVEF was <40%, treatment is interrupted.
# Ambulatory cardiac monitoring is performed on weeks 48, 96, 144, 192 and 240. Cardiac magnetic resonance is monitored at weeks 48, 144 and 240. (See FIG. 26).
# Change in KCCQ scores from baseline, including OSS=overall summary score, CSS=clinical summary score, TSS=total symptom score, PLS=physical limitation score, SLS=social limitation score, QoL=quality of life, were determined. Patients were categorized with worsened (≤−5 points), unchanged (−5 to <5 points), small improvement (5 to <10 points), moderate to large improvement (10 to <20 points), and large to very large improvement (≥20 points) relative to baseline.
compound,measurement,setting,value
"CCc1nc(-c2ccc3c(c2)CC[C@H]3NC(=O)c2cnn(C)c2)no1 [aficamten, (R)—N-(5-(5-ethyl-1,2,4-oxadiazol-3-yl)-2,3-dihydro-1H-inden-1-yl)-1-methyl-1H-pyrazole-4-carboxamide]",Patients with LVEF <50%,[1]; Cohort 1,No patients
same,Patients with AEs related to study drug (per investigator),"[1]; Cohort 1, 21 randomized",3 (14.3) N (%)
same,Patients with TEAEs leading to drug interruption or termination,"[1]; Cohort 1, 21 randomized",0 N (%)
same,Patients with TESAEs,"[1]; Cohort 1, 21 randomized",2 (9.5) N (%)
same,Patients with at least one TEAE,"[1]; Cohort 1, 21 randomized",17 (81) N (%)
same,Patients with fatal TEAEs,"[1]; Cohort 1, 21 randomized",0 N (%)
same,TEAE of LVEF <50% (Core Lab),"[1]; Cohort 1, 21 randomized",0 N (%)
same,Patients with AEs related to study drug (per investigator),"[1]; Cohort 2, 20 randomized",1 (5.0) N (%)
same,Patients with TEAEs leading to drug interruption or termination,"[1]; Cohort 2, 20 randomized",0 N (%)
same,Patients with TESAEs,"[1]; Cohort 2, 20 randomized",0 N (%)
same,Patients with at least one TEAE,"[1]; Cohort 2, 20 randomized",15 (75) N (%)
same,Patients with fatal TEAEs,"[1]; Cohort 2, 20 randomized",0 N (%)
same,TEAE of LVEF <50% (Core Lab),"[1]; Cohort 2, 20 randomized",2 (10) N (%)
same,Patients with transient LVEF reduction to <50% requiring down titration,"[1]; Cohort 2, on 20 mg, remaining above 40%",one patient
same,Interruptions or discontinuations of treatment,[1]; Cohorts 1 and 2,No interruptions or discontinuations
same,Treatment-related serious adverse events,"[1]; Cohorts 1 and 2, 10 weeks, listed as CK-274",no treatment related serious adverse events
same,Patients with AEs related to study drug (per investigator),"[1]; Total, 54 patients",6 (11.1) N (%)
same,Patients with TEAEs leading to drug interruption or termination,"[1]; Total, 54 patients",0 N (%)
same,Patients with TESAEs,"[1]; Total, 54 patients",2 (3.7) N (%)
same,Patients with at least one TEAE,"[1]; Total, 54 patients",41 (75.9) N (%)
same,Patients with fatal TEAEs,"[1]; Total, 54 patients",0 N (%)
same,TEAE of LVEF <50% (Core Lab),"[1]; Total, 54 patients",2 (3.7) N (%)
same,Time for LVEF to return towards baseline,[1]; both cohorts,within two weeks after the end of treatment
same,"CL/F, mean ± SD","[2]; Fasted, n = 4",2.8 ± 0.6 L/h
same,"CL/F, mean ± SD","[2]; Fed, n = 7",3.1 ± 0.9 L/h
same,Increase in Cmax when taken with food,[2]; fed vs fasted,approximately 30%
same,Patients with complete hemodynamic response / target goal (resting gradient <30 mmHg and post-Valsalva gradient <50 mmHg),"[3]; Cohort 1 (5, 10, 15 mg), Week 10, 11 out of 14",79%
same,Average ejection fraction,"[3]; Cohort 1 (n=14), baseline 72.8 (73±6)",67±9%
same,Patients with complete hemodynamic response / target goal (resting gradient <30 mmHg and post-Valsalva gradient <50 mmHg),"[3]; Cohort 2 (10, 20, 30 mg), Week 10, 13 out of 14",93%
same,Average ejection fraction,"[3]; Cohort 2 (n=14), baseline 75.4 (75±6)",64±8%
same,Patients converted from NYHA class III to class II or I,[3]; Cohorts 1 and 2,7 patients
same,Time of occurrence of reductions in LVOT-G after initiating treatment,[3]; Cohorts 1 and 2,within two weeks
same,Time of peak reduction in LVOT-G,[3]; Cohorts 1 and 2,within two to six weeks of the end of dose titration
same,Patients who improved from NYHA class III to I,[3]; pooled aficamten Cohorts 1 and 2,one
same,LVMI mean difference vs placebo,"[3]; week 10, p=0.063",8.1 g/m^2
same,Participants with very large clinical improvements (≥20 points) in KCCQ,[4]; Week 24,40.0%
same,LVOT gradients (resting and Valsalva) over time,"[4]; Weeks 2-24, site reads",significant and sustained reduction
same,Patients with worsening in NYHA class from baseline,[4]; open-label extension,No patients
same,LVEF over time,[4]; through Week 24,minimal and stable reductions
